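Results reflect a 48-hour exposure of cells in 96-well plates to compound at five concentrations. TGI: total growth inhibition.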
Key:
Assay in all cases: DTP human tumour cell line panel, 48 h
786-0 renal = tested on: 786-0 renal
A498 renal = tested on: A498 renal
ACHN renal = tested on: ACHN renal
CCRF-CEM leukemia = tested on: CCRF-CEM leukemia
HCC-2998 colon = tested on: HCC-2998 colon
HT29 colon = tested on: HT29 colon
IGROV1 ovarian = tested on: IGROV1 ovarian
K-562 leukemia = tested on: K-562 leukemia
MDA-MB-435 = tested on: MDA-MB-435
MDA-N = tested on: MDA-N
NCI-H460 lung = tested on: NCI-H460 lung
OVCAR-5 ovarian = tested on: OVCAR-5 ovarian
RXF 393 renal = tested on: RXF 393 renal
SF-539 CNS = tested on: SF-539 CNS
SK-MEL-2 melanoma = tested on: SK-MEL-2 melanoma
SK-OV-3 ovarian = tested on: SK-OV-3 ovarian
SNB-19 CNS = tested on: SNB-19 CNS
SNB-75 CNS = tested on: SNB-75 CNS
SW-620 colon = tested on: SW-620 colon
U251 CNS = tested on: U251 CNS

Row | SMILES | TGI (786-0 renal) | TGI (A498 renal) | TGI (ACHN renal) | TGI (CCRF-CEM leukemia) | TGI (HCC-2998 colon) | TGI (HT29 colon) | TGI (IGROV1 ovarian) | TGI (K-562 leukemia) | TGI (MDA-MB-435) | TGI (MDA-N) | TGI (NCI-H460 lung) | TGI (OVCAR-5 ovarian) | TGI (RXF 393 renal) | TGI (SF-539 CNS) | TGI (SK-MEL-2 melanoma) | TGI (SK-OV-3 ovarian) | TGI (SNB-19 CNS) | TGI (SNB-75 CNS) | TGI (SW-620 colon) | TGI (U251 CNS)
1 | CCC1NC(=O)C1NC(=O)OC (centres undefined) | > 100 µM | > 100 µM | > 100 µM | > 100 µM | > 100 µM | > 100 µM | > 100 µM | > 100 µM | > 100 µM | > 100 µM | > 100 µM | > 100 µM | > 100 µM | > 100 µM | > 100 µM | > 100 µM | > 100 µM | > 100 µM | > 100 µM | > 100 µM
2 | C[C@]12CC[C@@H]3c4ccc(OP(=O)(O)O)cc4CC[C@H]3[C@@H]1CCC2=O | > 100 µM | > 100 µM | > 100 µM | > 100 µM | > 100 µM | > 100 µM | > 100 µM | > 100 µM | > 100 µM | > 100 µM | > 100 µM | > 100 µM | > 100 µM | > 100 µM | > 100 µM | > 100 µM | > 100 µM | > 100 µM | > 100 µM | > 100 µM
3 | O=C(C1OC1c1ccc(O)cc1)C12CC3CC(CC(C3)C1)C2 (centres undefined) | 48.2 µM | > 96.1 µM | > 94.5 µM | > 41.5 µM | > 100 µM | > 100 µM | > 100 µM | > 61.3 µM | > 55 µM | > 75 µM | > 100 µM | > 100 µM | > 100 µM | > 94.9 µM | > 100 µM | > 100 µM | > 100 µM | > 100 µM | 70.3 µM | > 100 µM
4 | O=C(/C=C/c1ccccc1)CCN1CCN(CCC(=O)/C=C/c2ccccc2)CC1 | 18.9 µM | 33.3 µM | 29.5 µM | 28.1 µM | 30.4 µM | 30.4 µM | 33.1 µM | > 100 µM | 14.8 µM | 6.79 µM | 31 µM | 30.5 µM | 28.8 µM | 28.8 µM | 37.5 µM | > 100 µM | 32.6 µM | 29.7 µM | 17.4 µM | 30.3 µM
5 | CCCC1(NC(=O)C(F)(F)F)CC(OC)OC2COC(c3ccccc3)OC21 (centres undefined) | > 100 µM | > 100 µM | > 100 µM | > 100 µM | > 100 µM |  | > 100 µM | > 100 µM | > 100 µM | > 100 µM | > 100 µM | > 100 µM | > 100 µM | > 100 µM | > 100 µM | > 100 µM | > 100 µM | > 100 µM | > 100 µM | > 100 µM
6 | CSc1ncc2c(C#N)c3sc4ccccc4n3c(=O)c2n1 | > 100 µM | > 100 µM | > 100 µM | > 100 µM | > 100 µM | > 100 µM | > 100 µM | > 100 µM | > 100 µM | > 100 µM | > 100 µM | > 100 µM | > 100 µM | > 100 µM | > 100 µM | > 100 µM | > 100 µM | > 100 µM | > 100 µM | > 100 µM

Reference: PubChem BioAssay (NCI)
